The target of series [1] is T1, HaloTag7D106A (Rhodococcus rhodochrous, UniProt P0A3G2, A155T/A167V/A172T/A224E/C128F/C176G/D106A/D78G/E160K/E257K/H272N/K175M/K195N/L47V/L88M/N227D/P291S/S2A/S58T/T264A/Y273L/Y87F).
T1 construct: made in house
The series is described as follows: Fluorescence intensity based binding assay of fluorogenic HaloTag ligands. The following applies: 25 nM fluorogenic dye. As for the experimental part: FIG. 3 Affinities of fluorogenic HaloTag™ ligands to HaloTag7D106A: The catalytically dead variant HaloTag7D106A was titrated against 3 different fluorogenic HaloTag™ ligands at 25 nM in a fluorescence intensity based binding assay (Halo-Siliconrhodamine, Halo-Janelia Fluor 646 and Halo-Janelia Fluor 635). Structures of the fluorogenic ligands are shown in each graph. Data were fitted to a one-site binding model and derived Kd values are shown in the graph. Due to the low affinity of the fluorogenic substrates, data points at […] were extrapolated based on fully labelled Halo Tag™ 7 (resembling complete binding) to improve fitting. Data points at 1 nM correspond to values without any protein added, but were placed at low concentrations to appear on the logarithmic scale. All experiments were performed in triplicates, error bars and annotated uncertainties represent standard deviations.
(§1) The inventors decided to perform the experiment with some representative fluorescent HaloTag™ substrates. An exchange of the aspartate106 residue in the active site by an alanine, removes the nucleophile responsible for the self labeling reaction and eliminates the catalytic activity of the protein. Catalytically dead mutants of HaloTag™ 7 (HaloTag™ 7D106A) and cpHaloΔ9mer (cpHalo_9merD106A) were generated to measure substrate affinities without displacement of the equilibrium by the enzymatic reaction.
(§2) Affinities for the different fluorescent substrates towards HaloTag™ 7D106A were determined in an FP binding assay (FIG. 2), while affinities of fluorogenic silcon-rhodamine derived substrates were measured by a fluorescence intensity based binding assay (FIG. 3), since binding of the fluorogenic ligands by HaloTag™ 7 engenders a strong increase of fluorescence. In both cases Halo Tag7D106A concentrations ranging from 0 μM to 100 μM were titrated against 25 nM of dye. […] The observed affinities are in agreement with labelling kinetics recorded with different substrates (data not shown). […]

The target of series [2] is T1, HaloTag7D106A. The series is described as follows: FP binding assay of fluorescent HaloTag ligands. As for the experimental part:
FIG. 2 Affinities of fluorescent Halo Tag™ ligands to HaloTag7D106A: The catalytically dead variant HaloTag7D106A was titrated against 5 different fluorescent HaloTag™ ligands at 25 nM in an FP binding assay (Halo-carbopyronine, Halo-TMR, Halo-TMR-azetidine, Halo-Oregon Green™, Halo Alexa Fluor™ 488). Structures of the fluorescent ligands are shown in each graph. Data points at 0.1 nM and 1 nM correspond to values without any protein added, but were placed at low concentrations to appear on the logarithmic scale. All experiments were performed in triplicates, error bars and annotated uncertainties represent standard deviations.
as §1
Affinities for the different fluorescent substrates towards HaloTag™ 7D106A were determined in an FP binding assay (FIG. 2), while affinities of fluorogenic silcon-rhodamine derived substrates were measured by a fluorescence intensity based binding assay (FIG. 3), since binding of the fluorogenic ligands by HaloTag™ 7 engenders a strong increase of fluorescence. In both cases Halo Tag7D106A concentrations ranging from 0 μM to 100 μM were titrated against 25 nM of dye. […] The observed affinities are in agreement with labelling kinetics recorded with different substrates (data not shown). In general, fluorogenic substrates have lower affinities to HaloTag7D106A than non-fluorogenic substrates, except for Halo-Alexa Fluor™ 488 that features an affinity in the same range. Additionally, within the Silicon rhodamine derivatives the presence of an azetidine or 3-fluoroazetidine moiety has an influence on the binding affinity which is more pronounced compared to the rhodamine structure. Affinities of fluorescent HaloTag™ ligands presenting the best affinities for HaloTag™ 7 were tested with cpHaloΔ9merD106A in an FP binding assay and results were compared to the measurements with HaloTag7D106A (FIG. 4, table 1).

The target of series [3] is T2, cpHaloΔ9mer (Rhodococcus rhodochrous, UniProt P0A3G2, C128F/D78G/L47V/L88M/S58T/Y87F).
T2 construct: made in house
T2 sequence (P0A3G2 other isoform, or with tags, fused parts or gaps L47V/S58T/D78G/Y87F/L88M/C128F): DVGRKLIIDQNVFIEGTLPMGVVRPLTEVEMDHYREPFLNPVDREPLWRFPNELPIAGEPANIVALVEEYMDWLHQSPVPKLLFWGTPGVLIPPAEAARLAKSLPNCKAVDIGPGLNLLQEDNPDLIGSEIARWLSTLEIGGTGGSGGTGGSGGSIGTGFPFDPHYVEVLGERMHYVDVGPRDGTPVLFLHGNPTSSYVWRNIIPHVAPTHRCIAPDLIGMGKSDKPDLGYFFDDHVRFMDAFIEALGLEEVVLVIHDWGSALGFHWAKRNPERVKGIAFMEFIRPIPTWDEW
The series is described as follows: Background labelling of cpHaloΔ9mer by in gel fluorescence. The format is biochemical. The following applies: cpHaloΔ9mer 1 μM, 2 μM fluorescent ligand, 37° C. As for the experimental part:
FIG. 5 Background labeling of cpHaloΔ9mer: Background labeling of cpHaloΔ9mer (1 μM) in presence of 2 μM fluorescent ligands (at 37° C.) was determined via in gel fluorescence measurements. Samples were denatured and analysed via SDS-PAGE followed by in gel fluorescence scanning (top; gel is represented in false colors to highlight dim bands). Intensities were normalized to Halo Tag™ 7 labeled with the respective fluorophore (bottom).
A well performing protein complementation assay requires a low background. The inventors thus measured the extent of background labelling of cpHaloΔ9mer with different fluorophores (Halo-TMR, Halo-CPY and Halo-SiR). Therefore, cpHaloΔ9mer was incubated with an excess of the different fluorescent ligands.
The labelling efficiency at 37° C. and at different time points was determined via in gel fluorescence measurements (FIG. 5). […] These findings are in accordance to fluorescent ligand affinities (FIG. 4). Indeed, Halo-CPY has the highest affinity to cpHaloΔ9mer and already presents some affinity for the ligand at 2 μM engendering a labelling which still remains marginal considering the experimental setup.

The target of series [4] is cpHaloΔ9merD106A (Rhodococcus rhodochrous, UniProt P0A3G2, A167V/A172T/A224E/A292T/C128F/C176G/D106A/D78G/E160K/E257K, form not given/H272N/K175M/K195N/L47V/L88M/N227D/P291S/S58T/T264A/Y273L/Y87F). The series can be described thus: FP binding assay of fluorescent HaloTag ligands. The following applies: 25 nM dye. As for the experimental part:
FIG. 4 Comparison of HaloTag™ 7D106A and cpHaloΔ9merD106A fluorescent substrate binding: The catalytically dead variant […] (blue) was titrated against 3 different fluorescent Halo Tag™ ligands at 25 nM in an FP binding assay (Halo-TMR, Halo-TMR-azetidine and Halo-carbopyronine). Structures of the respective fluorescent ligands are shown above each graph. Data were fitted to a one-site binding model and derived Kd values are shown in the graphs. Data points at 0.01 nM and 0.1 nM correspond to values without any protein added, but were placed at low concentrations to appear on the logarithmic scale. Data were compared to HaloTag™ 7D106A binding of the same fluorophores (red). Differences in binding affinity are indicated by the relative fold change of Kd values. All experiments were performed in triplicate, error bars represent standard deviations.
as §1, §2

Series [5] in a line: physchem. Conditions: pH 7.3.

No end group written: not given here.

Here are results for 9 compounds from US12371676B2, “Circularly permutated haloalkane transferase fusion molecules” (MAX-PLANCK-GESELLSCHAFT ZUR FÖRDERUNG DER WISSENSCHAFTEN E. …, priority 2019, dated 2025).

The Kd is the equilibrium constant for the complex coming apart. One may read the solubility as the dissolved amount per volume that the medium holds. Higher therefore signals much dissolved substance.

T1 sequence (P0A3G2 other isoform, or with tags, fused parts or gaps with the stated changes): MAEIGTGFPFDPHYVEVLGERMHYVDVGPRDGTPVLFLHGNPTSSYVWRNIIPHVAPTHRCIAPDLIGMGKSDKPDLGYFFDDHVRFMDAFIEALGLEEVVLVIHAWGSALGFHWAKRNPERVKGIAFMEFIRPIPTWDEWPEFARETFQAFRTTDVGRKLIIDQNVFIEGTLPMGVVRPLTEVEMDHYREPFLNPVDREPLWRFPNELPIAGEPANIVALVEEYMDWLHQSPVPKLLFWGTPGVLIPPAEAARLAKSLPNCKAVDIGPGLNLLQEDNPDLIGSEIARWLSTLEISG
cpHaloΔ9merD106A, sequence (P0A3G2 other isoform, or with tags, fused parts or gaps with the stated changes, form open): as the sequence (P0A3G2 other isoform, or with tags, fused parts or gaps L47V/S58T/D78G/Y87F/L88M/C128F) above, with D258A counted along it

The compound `C[Si]1(C)C2=CC(=[N+]3CC(F)C3)C=CC2=C(c2cc(C(=O)NCCOCCOCCCCCCCl)ccc2C(=O)O)c2ccc(N3CC(F)C3)cc21` (stereo not drawn) [1-(10-(2-carboxy-5-((2-(2-((6-chlorohexyl)oxy)ethoxy)ethyl)carbamoyl)phenyl)-7-(3-fluoroazetidin-1-yl)-5,5-dimethyldibenzo[b,e]silin-3(5H)-ylidene)-3-fluoroazetidin-1-ium] returned a Kd in series [1] of 172 µM.

On to `N=c1ccc2c(-c3cc(C(=O)NCCOCCOCCCCCCCl)ccc3C(=O)O)c3ccc(N)c(S(=O)(=O)O)c3oc-2c1S(=O)(=O)O` [Halo-Alexa Fluor 488, 6-amino-9-(2-carboxy-5-((2-(2-((6-chlorohexyl)oxy)ethoxy)ethyl)carbamoyl)phenyl)-3-iminio-3H-xanthene-4,5-disulfonate], for which, in series [2] (HaloTag7D106A, FP binding assay, 25 nM dye, one-site binding model, read-out: Kd), the Kd stood at 94 µM. As to `O=C(NCCOCCOCCCCCCCl)c1ccc(C(=O)O)c(-c2c3cc(F)c(=O)cc-3oc3cc(O)c(F)cc23)c1` [Halo-Oregon Green, 4-((2-(2-((6-chlorohexyl)oxy)ethoxy)ethyl)carbamoyl)-2-(2,7-difluoro-6-hydroxy-3-oxo-3H-xanthen-9-yl)benzoic acid], the equilibrium dissociation constant (Kd) in series [2] came to 39.6 µM. Turning to `CN(C)c1ccc2c(c1)C(C)(C)C1=CC(=[N+](C)C)C=CC1=C2c1cc(C(=O)NCCOCCOCCCCCCCl)ccc1C(=O)[O-]` [Halo-carbopyronine, N-(10-(2-carboxy-5-((2-(2-((6-chlorohexyl)oxy)ethoxy)ethyl)carbamoyl)phenyl)-7-(dimethylamino)-9,9-dimethylanthracen-2(9H)-ylidene)-N-methylmethanaminium], the Kd in series [2] turned out to be 0.622 µM; in series [4], 90.5 µM. The “background labelling of cpHaloΔ9mer” value in series [3] is given as “slightly stronger background labelling”. On to `CN(C)c1ccc2c(c1)[Si](C)(C)C1=CC(=[N+](C)C)C=CC1=C2c1cc(C(=O)NCCOCCOCCCCCCCl)ccc1C(=O)O` [Halo-silicon-rhodamine, N-(10-(2-carboxy-5-((2-(2-((6-chlorohexyl)oxy)ethoxy)ethyl)carbamoyl)phenyl)-7-(dimethylamino)-5,5-dimethyldibenzo[b,e]silin-3(5H)-ylidene)-N-methylmethanaminium], for which the Kd in series [1] was 22.7 µM. In series [3], the “background labelling of cpHaloΔ9mer” value was “Very low background labelling”.

In series [1], `C[Si]1(C)C2=CC(=[N+]3CCC3)C=CC2=C(c2cc(C(=O)NCCOCCOCCCCCCCl)ccc2C(=O)O)c2ccc(N3CCC3)cc21` [Halo-silicon-rhodamine-azetidine (JF646), 1-(7-(azetidin-1-yl)-10-(2-carboxy-5-((2-(2-((6-chlorohexyl)oxy)ethoxy)ethyl)-carbamoyl)phenyl)-5,5-dimethyldibenzo[b,e]silin-3(5H)-ylidene)azetidin-1-ium] came in with a Kd of 54.6 µM. With `CN(C)c1ccc2c(-c3cc(C(=O)NCCOCCOCCCCCCCl)ccc3C(=O)[O-])c3ccc(=[N+](C)C)cc-3oc2c1` [Halo-tetramethylrhodamine, N-(9-(2-carboxy-5-((2-(2-((6-chlorohexyl)oxy)ethoxy)ethyl)carbamoyl)phenyl)-6-(dimethylamino)-3H-xanthen-3-ylidene)-N-methylmethanaminium], the Kd came to 6.68 µM in series [2] and 115 µM in series [4]. The “background labelling of cpHaloΔ9mer” value in series [3] is “Very low background labelling”. As to `O=C(NCCOCCOCCCCCCCl)c1ccc(C(=O)[O-])c(-c2c3ccc(=[N+]4CCC4)cc-3oc3cc(N4CCC4)ccc23)c1` [Halo-tetramethylrhodamine-azetidine, 1-(6-(azetidin-1-yl)-9-(2-carboxy-5-((2-(2-((6-chlorohexyl)oxy)ethoxy)ethyl)carbamoyl)-phenyl)-3H-xanthen-3-ylidene)azetidin-1-ium], the values for the Kd in series [2] and in series [4] were 4.4 µM and 227 µM, respectively. For ARETFQAFR [9mer peptide], the solubility in series [5] is ~30 mM.
